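Cultured in 96-well plates, cells were exposed to test compound for 48 hours across five concentrations. TGI is the concentration that stops growth completely.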
How the values were obtained:
Assay in all cases: NCI-60 cell line screen, 48 h
786-0 renal = system: 786-0 renal
A498 renal = system: A498 renal
A549 NSCLC = system: A549 NSCLC
ACHN renal = system: ACHN renal
BT-549 breast = system: BT-549 breast
CAKI-1 renal = system: CAKI-1 renal
CCRF-CEM leukemia = system: CCRF-CEM leukemia
COLO 205 colon = system: COLO 205 colon
DU-145 prostate = system: DU-145 prostate
EKVX NSCLC = system: EKVX NSCLC
HCT-116 colon = system: HCT-116 colon
HCT-15 colon = system: HCT-15 colon
HL-60(TB) leukemia = system: HL-60(TB) leukemia
HOP-62 NSCLC = system: HOP-62 NSCLC
HOP-92 NSCLC = system: HOP-92 NSCLC
HS 578T breast = system: HS 578T breast
HT29 colon = system: HT29 colon
IGROV1 ovarian = system: IGROV1 ovarian
K-562 leukemia = system: K-562 leukemia
KM12 colon = system: KM12 colon
LOX IMVI melanoma = system: LOX IMVI melanoma
M14 melanoma = system: M14 melanoma
MALME-3M melanoma = system: MALME-3M melanoma
MCF7 breast = system: MCF7 breast
MDA-MB-231 breast = system: MDA-MB-231 breast
MDA-MB-435 = system: MDA-MB-435
MDA-N = system: MDA-N
MOLT-4 leukemia = system: MOLT-4 leukemia
NCI-H226 lung = system: NCI-H226 lung
NCI-H23 lung = system: NCI-H23 lung
NCI-H460 lung = system: NCI-H460 lung
NCI-H522 lung = system: NCI-H522 lung
NCI/ADR-RES ovarian = system: NCI/ADR-RES ovarian
OVCAR-3 ovarian = system: OVCAR-3 ovarian
OVCAR-4 ovarian = system: OVCAR-4 ovarian
OVCAR-5 ovarian = system: OVCAR-5 ovarian
OVCAR-8 ovarian = system: OVCAR-8 ovarian
PC-3 prostate = system: PC-3 prostate
RXF 393 renal = system: RXF 393 renal
SF-268 CNS = system: SF-268 CNS
SF-295 CNS = system: SF-295 CNS
SK-MEL-2 melanoma = system: SK-MEL-2 melanoma
SK-MEL-28 melanoma = system: SK-MEL-28 melanoma
SK-MEL-5 melanoma = system: SK-MEL-5 melanoma
SK-OV-3 ovarian = system: SK-OV-3 ovarian
SN12C renal = system: SN12C renal
SNB-19 CNS = system: SNB-19 CNS
SW-620 colon = system: SW-620 colon
T-47D breast = system: T-47D breast
TK-10 renal = system: TK-10 renal
U251 CNS = system: U251 CNS
UACC-257 melanoma = system: UACC-257 melanoma
UACC-62 melanoma = system: UACC-62 melanoma
UO-31 renal = system: UO-31 renal
HCC-2998 colon = system: HCC-2998 colon
RPMI-8226 leukemia = system: RPMI-8226 leukemia
SF-539 CNS = system: SF-539 CNS
SNB-75 CNS = system: SNB-75 CNS

What does the source list for `C#C[C@]1(O)CC[C@H]2[C@@H]3CCC4=CC(=NCCOC(=O)c5cccc6c(=O)c7ccccc7[nH]c56)CC[C@@H]4[C@H]3CC[C@@]21C`?
TGI (786-0 renal): > 100 µM; TGI (A498 renal): > 100 µM; TGI (A549 NSCLC): > 100 µM; TGI (ACHN renal): > 100 µM; TGI (BT-549 breast): > 100 µM; TGI (CAKI-1 renal): > 100 µM; TGI (CCRF-CEM leukemia): > 100 µM; TGI (COLO 205 colon): > 100 µM; TGI (DU-145 prostate): > 100 µM; TGI (EKVX NSCLC): > 100 µM; TGI (HCT-116 colon): > 100 µM; TGI (HCT-15 colon): > 100 µM; TGI (HL-60(TB) leukemia): > 100 µM; TGI (HOP-62 NSCLC): > 100 µM; TGI (HOP-92 NSCLC): 89.6 µM; TGI (HS 578T breast): > 100 µM; TGI (HT29 colon): > 100 µM; TGI (IGROV1 ovarian): > 100 µM; TGI (K-562 leukemia): > 100 µM; TGI (KM12 colon): > 100 µM; TGI (LOX IMVI melanoma): 84 µM; TGI (M14 melanoma): > 100 µM; TGI (MALME-3M melanoma): 91.1 µM; TGI (MCF7 breast): > 100 µM; TGI (MDA-MB-231 breast): 72.6 µM; TGI (MDA-MB-435): > 100 µM; TGI (MDA-N): > 100 µM; TGI (MOLT-4 leukemia): > 100 µM; TGI (NCI-H226 lung): > 100 µM; TGI (NCI-H23 lung): > 100 µM; TGI (NCI-H460 lung): > 100 µM; TGI (NCI-H522 lung): > 100 µM; TGI (NCI/ADR-RES ovarian): > 100 µM; TGI (OVCAR-3 ovarian): > 100 µM; TGI (OVCAR-4 ovarian): > 100 µM; TGI (OVCAR-5 ovarian): > 100 µM; TGI (OVCAR-8 ovarian): 48.9 µM; TGI (PC-3 prostate): 55 µM; TGI (RXF 393 renal): 43.2 µM; TGI (SF-268 CNS): > 100 µM; TGI (SF-295 CNS): > 100 µM; TGI (SK-MEL-2 melanoma): 95.6 µM; TGI (SK-MEL-28 melanoma): > 100 µM; TGI (SK-MEL-5 melanoma): > 100 µM; TGI (SK-OV-3 ovarian): > 100 µM; TGI (SN12C renal): > 100 µM; TGI (SNB-19 CNS): > 100 µM; TGI (SW-620 colon): > 100 µM; TGI (T-47D breast): 78.1 µM; TGI (TK-10 renal): > 100 µM; TGI (U251 CNS): 51.4 µM; TGI (UACC-257 melanoma): > 100 µM; TGI (UACC-62 melanoma): > 100 µM; TGI (UO-31 renal): > 100 µM

How did the TGI (786-0 renal) turn out when `CC(C)(CN1CCCCC1)C(/C=C/c1ccc(Cl)c(Cl)c1)=N\NC(=O)N/N=C(/C=C/c1ccc(Cl)c(Cl)c1)C(C)(C)CN1CCCCC1` was run?
Its TGI is 2.8 µM.

What about the TGI (A498 renal) of the same compound?
Its TGI is 3.11 µM.

And the TGI (A549 NSCLC)?
Its TGI is 3.3 µM.

And the TGI (ACHN renal)?
The TGI was 3.37 µM.

What about the TGI (BT-549 breast) of the same compound?
The TGI was greater than 10 µM.

And the TGI (CAKI-1 renal)?
The TGI was 3.16 µM.

What about the TGI (CCRF-CEM leukemia) of the same compound?
The TGI was 3.45 µM.

And the TGI (COLO 205 colon)?
The TGI was 3.19 µM.

And the TGI (DU-145 prostate)?
The TGI was 3.33 µM.

And the TGI (EKVX NSCLC)?
The TGI was 3.06 µM.

And the TGI (HCC-2998 colon)?
The TGI was 3.12 µM.

And the TGI (HCT-116 colon)?
The TGI was 2.11 µM.

And the TGI (HCT-15 colon)?
The TGI was 2.56 µM.

And the TGI (HL-60(TB) leukemia)?
The TGI was 3.25 µM.

And the TGI (HOP-62 NSCLC)?
Its TGI is 3.32 µM.

And the TGI (HS 578T breast)?
The TGI was 3.39 µM.

And the TGI (HT29 colon)?
Its TGI is 1.25 µM.

And the TGI (IGROV1 ovarian)?
Its TGI is 3.64 µM.

What about the TGI (K-562 leukemia) of the same compound?
Its TGI is 0.876 µM.

What about the TGI (KM12 colon) of the same compound?
Its TGI is 3.08 µM.

And the TGI (LOX IMVI melanoma)?
The TGI was 2.5 µM.

What about the TGI (M14 melanoma) of the same compound?
Its TGI is 1.32 µM.

What about the TGI (MALME-3M melanoma) of the same compound?
Its TGI is 2.95 µM.

What about the TGI (MCF7 breast) of the same compound?
The TGI was 3.09 µM.

What about the TGI (MDA-MB-231 breast) of the same compound?
The TGI was 3.71 µM.

What about the TGI (MDA-MB-435) of the same compound?
The TGI was 2.57 µM.

And the TGI (MDA-N)?
The TGI was 2.75 µM.

What about the TGI (MOLT-4 leukemia) of the same compound?
Its TGI is 8.74 µM.

What about the TGI (NCI-H226 lung) of the same compound?
Its TGI is 4.1 µM.

What about the TGI (NCI-H23 lung) of the same compound?
Its TGI is 3.4 µM.

What about the TGI (NCI-H460 lung) of the same compound?
Its TGI is 2.77 µM.

What about the TGI (NCI-H522 lung) of the same compound?
The TGI was 3.56 µM.

And the TGI (NCI/ADR-RES ovarian)?
Its TGI is 3.32 µM.

What about the TGI (OVCAR-3 ovarian) of the same compound?
The TGI was 2.91 µM.

And the TGI (OVCAR-4 ovarian)?
Its TGI is 3.19 µM.

What about the TGI (OVCAR-5 ovarian) of the same compound?
The TGI was 2.97 µM.

What about the TGI (OVCAR-8 ovarian) of the same compound?
The TGI was 3.38 µM.

What about the TGI (PC-3 prostate) of the same compound?
Its TGI is greater than 10 µM.

What about the TGI (RPMI-8226 leukemia) of the same compound?
The TGI was 9 µM.

What about the TGI (RXF 393 renal) of the same compound?
Its TGI is 1.99 µM.

And the TGI (SF-268 CNS)?
The TGI was 3.15 µM.

What about the TGI (SF-295 CNS) of the same compound?
The TGI was 3.07 µM.

And the TGI (SF-539 CNS)?
The TGI was 3.25 µM.

And the TGI (SK-MEL-2 melanoma)?
The TGI was greater than 10 µM.

And the TGI (SK-MEL-28 melanoma)?
The TGI was 3.16 µM.

What about the TGI (SK-MEL-5 melanoma) of the same compound?
Its TGI is 3.5 µM.

What about the TGI (SK-OV-3 ovarian) of the same compound?
Its TGI is 3.33 µM.

And the TGI (SN12C renal)?
The TGI was 3.24 µM.

What about the TGI (SNB-19 CNS) of the same compound?
The TGI was 3.22 µM.

What about the TGI (SNB-75 CNS) of the same compound?
The TGI was 3.12 µM.

What about the TGI (SW-620 colon) of the same compound?
Its TGI is 3.13 µM.

And the TGI (T-47D breast)?
The TGI was 4.1 µM.

And the TGI (TK-10 renal)?
Its TGI is 3.08 µM.

And the TGI (U251 CNS)?
Its TGI is 3.13 µM.

And the TGI (UACC-257 melanoma)?
Its TGI is 3.08 µM.

And the TGI (UACC-62 melanoma)?
Its TGI is 3.4 µM.

And the TGI (UO-31 renal)?
Its TGI is 5.56 µM.

— PubChem BioAssay (NCI)
